Values after ≈ are worked out from the molar mass of the structure shown.
How the values were obtained:
Type in all cases: functional
Citrobacter freundii = experiment: Antimicrobial activity against Citrobacter freundii S008 expressing PMQR determinant qnrB23 gene by Etest
Escherichia coli [1] = experiment: Antimicrobial activity against […] Escherichia coli DH5alpha TrfS008 harboring PMQR determinant qnrB23 by Etest
Citrobacter werkmanii = experiment: Antimicrobial activity against Citrobacter werkmanii PS012 expressing PMQR determinant qnrB22 gene by Etest
Escherichia coli [2] = experiment: Antimicrobial activity against azide-resistant Escherichia coli J53 by Etest
Escherichia coli [3] = experiment: Antimicrobial activity against […] Escherichia coli DH5alpha by Etest
Escherichia coli [4] = experiment: Antimicrobial activity against […] Escherichia coli DH5alpha TrfPS012 harboring PMQR determinant qnrB22 by Etest
Escherichia coli [5] = experiment: Antimicrobial activity against azide-resistant Escherichia coli J53 TrcS008 harboring PMQR determinant qnrB23 by Etest
Escherichia coli [6] = experiment: Antimicrobial activity against azide-resistant Escherichia coli J53 TrcPS012 harboring PMQR determinant qnrB22 by Etest

SMILES | MIC (Citrobacter freundii) [µg/mL] | MIC (Escherichia coli [1]) [µg/mL] | MIC (Citrobacter werkmanii) [µg/mL] | MIC (Escherichia coli [2]) [µg/mL] | MIC (Escherichia coli [3]) [µg/mL] | MIC (Escherichia coli [4]) [µg/mL] | MIC (Escherichia coli [5]) [µg/mL] | MIC (Escherichia coli [6]) [µg/mL]
O=C(O)c1cn(C2CC2)c2cc(N3CCNCC3)c(F)cc2c1=O [CIPROFLOXACIN] | 2 (≈ 6.04 µM) | 0.064 (≈ 0.193 µM) | 0.25 (≈ 0.754 µM) |  |  |  |  | 
C[C@H]1COc2c(N3CCN(C)CC3)c(F)cc3c(=O)c(C(=O)O)cn1c23.C[C@H]1COc2c(N3CCN(C)CC3)c(F)cc3c(=O)c(C(=O)O)cn1c23.O [LEVOFLOXACIN] | 3 | 0.094 | 0.5 | 0.023 | < 0.002 | 0.004 | 3 | 
CCn1cc(C(=O)O)c(=O)c2ccc(C)nc21 [NALIDIXIC ACID] | > 256 | 16 (≈ 68.9 µM) | 32 (≈ 138 µM) | 3 (≈ 12.9 µM) | 2 (≈ 8.61 µM) | 4 (≈ 17.2 µM) | > 256 | 16 (≈ 68.9 µM)
CCn1cc(C(=O)O)c(=O)c2cc(F)c(N3CCNCC3)cc21 [NORFLOXACIN] | 8 (≈ 25.1 µM) | 0.25 (≈ 0.783 µM) | 0.5 (≈ 1.57 µM) | 0.064 (≈ 0.2 µM) | 0.032 (≈ 0.1 µM) | 0.064 (≈ 0.2 µM) | 8 (≈ 25.1 µM) | 0.25 (≈ 0.783 µM)
CC1COc2c(N3CCN(C)CC3)c(F)cc3c(=O)c(C(=O)O)cn1c23 (stereo not drawn) [OFLOXACIN] | 8 (≈ 22.1 µM) | 0.25 (≈ 0.692 µM) | 1 (≈ 2.77 µM) | 0.064 (≈ 0.177 µM) | 0.023 (≈ 0.0636 µM) | 0.064 (≈ 0.177 µM) | 8 (≈ 22.1 µM) | 

— ChEMBL document CHEMBL1275241, “Novel variants of the qnrB gene, qnrB22 and qnrB23, in Citrobacter werkmanii and Citrobacter freundii” (2010)
